Test results published in PMC4979206, “Structural basis of unique ligand specificity of KAI2-like protein from parasitic weed Striga hermonthica” (Scientific Reports, 2016).
Several values for one entry are separate records, joined by “and”; a condition that tells them apart may be missing. Equal values may be shown once. Entries after “also recorded” stand apart in the source; their conditions may differ.

Tests used:
ShKAI2iB [1] = target: T1, ShKAI2iB (Striga hermonthica, UniProt A0A0M3PN85, C270S); experiment: ITC binding to ShKAI2iB (wild type)
Experimental: (§1) The coding sequence cDNA of ShKAI2iB was amplified by PCR using total complementary DNA from the total RNA of 1-day conditioned Striga seeds. ShKAI2iB (1–270, C270S) was designed for crystallization and other assays. For expression in Escherichia coli, the PCR product was cloned into an expression vector pGEX-6P-3 (GE Healthcare) and subsequently transformed into E. coli strain Rosetta (DE3) (Novagen). IPTG-induced overexpression was performed for 20 h at 25 °C. For purification, cell pellets were lysed by sonication in buffer A (20 mM Tris-HCl, pH 8.0, 0.3 M NaCl, 1 mM DTT), and the soluble fraction separated by centrifugation was purified using Glutathione Sepharose 4B resin (GE Healthcare) and a Resource Q anion-exchange column (GE Healthcare). ShKAI2iB mutants were overexpressed and purified with the same procedure as wild-type protein. For crystallization, buffer exchange accompanied by concentration was performed using Vivaspin 20 (5,000 MWCO PES) (Sartorius). Purified ShKAI2iB was dialyzed against buffer B (20 mM HEPES-NaOH, pH 8.0, 50 mM NaCl) for the ITC experiments and the intrinsic fluorescence assay.
(§2) Binding assays of ShKAI2iB and KAR1 were performed using a MicroCal iTC200 isothermal titration calorimeter (GE Healthcare). Prior to the ITC experiments, concentrated ShKAI2iB was dialyzed against a buffer consisting of 20 mM HEPES-NaOH, pH 8.0, and 50 mM NaCl to remove dithiothreitol and then adjusted to a final concentration of 150 μM. The sample cell was filled with ShKAI2iB solution (204 μl). […] of 3 mM KAR1 or 3 mM rac-GR24 (equimolar mixture of two enantiomers: GR24^5DS and GR24^ent-5DS) was injected into the prepared protein solution by 20 consecutive 2.0 μl aliquots at 150 s intervals at 10 °C. The first injection volume was 0.4 μl, and the observed thermal peak was excluded from the data analyses. Duplicate experiments were performed independently. A negative control was made by titrating 3 mM KAR1 into a buffer (20 mM HEPES, pH 8.0, 50 mM NaCl) in the same manner. Data fitting was performed using Origin software in the “one set of sites” mode. The dissociation constant (KD) values were calculated from duplicate thermograms (mean ± S.D.).

KAI2 [2] = tested on: KAI2; design: method as in PMID 25126711; conditions: cited from earlier work
KAI2 [3] = tested on: KAI2; design: method as in PMID 25126711; conditions: cited from earlier work; remark: listed apart in the source
ShKAI2iB [4] = target: T1, ShKAI2iB; experiment: Enzymatic degradation (hydrolysis) assay of rac-GR24 with HPLC; format: biochemical; conditions: 10 μM rac-GR24, 6 μg ml^−1 protein, 3 h, 37 °C
Experimental: The enzymatic degradation assay of rac-GR24 was performed in a total volume of 1 ml of PBS buffer containing 10 μM rac-GR24. Purified OsD14[23] and ShKAI2iB were added at a final concentration of 6 μg ml^−1 and incubated for 3 h at 37 °C. Then 100 mg of NaCl and 100 μl of 0.1 M HCl were added to each reaction solution, and the reaction solutions were extracted with 400 μl of ethyl acetate three times. The ethyl acetate layers were combined and dried in vacuo and dissolved in 50 μl of methanol. For each layer, 10 μl was applied to the HPLC analyses. The reverse-phase chromatographic separation was performed on a Jasco HPLC system that was equipped with an HPLC pump of model PU 2080 (Jasco) and a photodiode array detector MD1510 (Jasco). The system was controlled by the ChromNAV (Ver. 1.18.07) software program (Jasco). The analytical column was a CAPCELL CORE C18 (Φ 4.6 × 100 mm, Shiseido). The analytes were eluted under gradient conditions using methanol ramped linearly to 90% methanol at 9 min and held for 4.5 min before resetting to the original conditions. The contents of rac-GR24 was calculated by the peak area at the retention time 6.2 min with the regression equation obtained from the calibration curve produced using a dilution series of rac-GR24 solution. […] Statistical differences between the groups were calculated with ANOVA analysis followed by Tukey–Kramer test.

ShKAI2iB [5] = target: T1, ShKAI2iB; experiment: Intrinsic fluorescence binding assay
Experimental: The coding sequence cDNA of ShKAI2iB was amplified by PCR using total complementary DNA from the total RNA of 1-day conditioned Striga seeds. ShKAI2iB (1–270, C270S) was designed for crystallization and other assays. For expression in Escherichia coli, the PCR product was cloned into an expression vector pGEX-6P-3 (GE Healthcare) and subsequently transformed into E. coli strain Rosetta (DE3) (Novagen). IPTG-induced overexpression was performed for 20 h at 25 °C. […] Purified ShKAI2iB was dialyzed against buffer B (20 mM HEPES-NaOH, pH 8.0, 50 mM NaCl) for the ITC experiments and the intrinsic fluorescence assay.
KD values were also determined by using intrinsic fluorescence assays. Fluorescence measurements were conducted as previously described[16] with minor modifications. […] Flat-bottomed, black 96 well plates were used to read fluorescence intensity using a Tecan Infinite M1000 monochromator. Measurements were taken at room temperature under a 285 nm excitation wavelength, a 333 nm emission wavelength, 50 flashes, and a 400 Hz flash frequency with a gain of 70 and a 2 μs integration time. ΔF (rfu, relative fluorescence units) was calculated by subtracting the fluorescence of the DMSO control. […]

ShKAI2iB V139L = ShKAI2iB V139L (Striga hermonthica, UniProt A0A0M3PN85, C270S/V139L); experiment: ITC binding to ShKAI2iB V139L mutant
Experimental: as §1
(§3) Binding assays of ShKAI2iB and KAR1 were performed using a MicroCal iTC200 isothermal titration calorimeter (GE Healthcare). Prior to the ITC experiments, concentrated ShKAI2iB was dialyzed against a buffer consisting of 20 mM HEPES-NaOH, pH 8.0, and 50 mM NaCl to remove dithiothreitol and then adjusted to a final concentration of 150 μM. The sample cell was filled with ShKAI2iB solution (204 μl). Two microliters of 3 mM KAR1 or 3 mM rac-GR24 (equimolar mixture of two enantiomers: GR24^5DS and GR24^ent-5DS) was injected into the prepared protein solution by 20 consecutive 2.0 μl aliquots at 150 s intervals at 10 °C. The first injection volume was 0.4 μl, and the observed thermal peak was excluded from the data analyses. Duplicate experiments were performed independently. […] The dissociation constant (KD) values were calculated from duplicate thermograms (mean ± S.D.). […]

ShKAI2iB F190L = ShKAI2iB F190L (Striga hermonthica, UniProt A0A0M3PN85, C270S/F190L); experiment: ITC binding to ShKAI2iB F190L mutant
Experimental: as §1, §3

ShKAI2iB F194A = ShKAI2iB F194A (Striga hermonthica, UniProt A0A0M3PN85, C270S/F194A); experiment: ITC binding to ShKAI2iB F194A mutant
Experimental: as §1, §2
(§4) Supplementary Figure 4. Results of ITC experiments between ShKAI2iB mutants and KAR1. ITC experiments were performed b y titrating KAR1 into ShKA I2iB mutants (a, F194A; b, S95A; c, L142A; d, F190L; e, V139 L) or into buffer as a negat ive control (f). The upper panel illustrates raw ITC data. The bottom panel represents data of the enthalpy cha nge deri ved fr om the upper panel. Corres ponding […]
(§5) (1 picture or pasted object on this page, not shown here)

ShKAI2iB L142A = ShKAI2iB L142A (Striga hermonthica, UniProt A0A0M3PN85, C270S/L142A); experiment: ITC binding to ShKAI2iB L142A mutant
Experimental: as §1, §2, §4, §5

S. hermonthica = tested on: S. hermonthica; design: method as in PMID 26228149; conditions: cited from earlier work
ShKAI2iB S95A = experiment: ITC binding to ShKAI2iB S95A mutant; design: species or system Striga hermonthica
Experimental: as §1
Binding assays of ShKAI2iB and KAR1 were performed using a MicroCal iTC200 isothermal titration calorimeter (GE Healthcare). […] The dissociation constant (KD) values were calculated from duplicate thermograms (mean ± S.D.). […]

ShKAI2iB F190L, sequence (A0A0M3PN85 1-270 F190L/C270S): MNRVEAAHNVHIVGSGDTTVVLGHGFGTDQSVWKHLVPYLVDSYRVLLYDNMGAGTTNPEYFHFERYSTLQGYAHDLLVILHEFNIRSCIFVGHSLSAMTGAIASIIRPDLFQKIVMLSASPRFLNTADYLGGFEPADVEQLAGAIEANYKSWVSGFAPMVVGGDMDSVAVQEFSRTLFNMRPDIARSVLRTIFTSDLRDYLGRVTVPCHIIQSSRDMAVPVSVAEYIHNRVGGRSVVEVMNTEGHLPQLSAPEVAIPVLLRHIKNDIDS
T1 sequence (A0A0M3PN85 1-270 C270S): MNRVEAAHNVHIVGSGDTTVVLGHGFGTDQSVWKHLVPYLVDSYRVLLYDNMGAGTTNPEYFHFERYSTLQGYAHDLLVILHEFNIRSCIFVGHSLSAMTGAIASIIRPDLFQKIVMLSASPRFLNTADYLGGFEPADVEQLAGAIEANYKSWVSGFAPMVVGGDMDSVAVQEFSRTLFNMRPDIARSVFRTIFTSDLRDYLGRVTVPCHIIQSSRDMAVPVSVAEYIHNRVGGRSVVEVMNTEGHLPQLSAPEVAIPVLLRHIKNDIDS
ShKAI2iB F194A, sequence (A0A0M3PN85 1-270 F194A/C270S): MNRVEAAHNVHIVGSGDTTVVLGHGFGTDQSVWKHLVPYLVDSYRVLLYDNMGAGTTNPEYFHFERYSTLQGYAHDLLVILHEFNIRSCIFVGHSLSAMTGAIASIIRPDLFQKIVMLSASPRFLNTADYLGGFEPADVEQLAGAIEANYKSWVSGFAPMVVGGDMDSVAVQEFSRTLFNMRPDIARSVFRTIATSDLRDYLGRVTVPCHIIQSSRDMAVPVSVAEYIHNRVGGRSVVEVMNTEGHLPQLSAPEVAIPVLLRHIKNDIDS
ShKAI2iB L142A, sequence (A0A0M3PN85 1-270 L142A/C270S): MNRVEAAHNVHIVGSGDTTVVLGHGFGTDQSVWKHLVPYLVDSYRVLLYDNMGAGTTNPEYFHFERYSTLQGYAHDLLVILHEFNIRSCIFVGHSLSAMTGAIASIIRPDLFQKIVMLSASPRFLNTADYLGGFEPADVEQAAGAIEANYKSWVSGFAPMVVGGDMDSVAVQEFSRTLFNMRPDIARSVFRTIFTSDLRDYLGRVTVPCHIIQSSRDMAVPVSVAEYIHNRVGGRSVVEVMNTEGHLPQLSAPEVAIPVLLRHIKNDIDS
ShKAI2iB V139L, sequence (A0A0M3PN85 1-270 V139L/C270S): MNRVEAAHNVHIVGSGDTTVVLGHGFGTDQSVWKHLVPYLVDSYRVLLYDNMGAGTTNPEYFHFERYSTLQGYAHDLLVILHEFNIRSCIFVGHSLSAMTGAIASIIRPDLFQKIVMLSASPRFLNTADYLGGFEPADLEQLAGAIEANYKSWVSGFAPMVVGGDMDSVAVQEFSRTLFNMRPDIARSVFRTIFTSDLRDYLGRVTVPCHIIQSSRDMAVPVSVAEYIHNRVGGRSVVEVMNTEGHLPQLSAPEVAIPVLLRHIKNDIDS

CC1=CC(OC=C2C(=O)OC3c4ccccc4CC23)OC1=O (racemic) [rac-GR24]
heat change in ITC (binding) (ShKAI2iB [1]; wild-type ShKAI2iB, 3 mM ligand titrated): no detectable heat change | hydrolysis by KAI2 (KAI2 [2]): exhibits hydrolytic activity | binding to KAI2 (KAI2 [3]): able to bind | hydrolysis by ShKAI2iB (ShKAI2iB [4]): not capable of hydrolyzing | hydrolysis by ShKAI2iB (ShKAI2iB [4]; listed as GR24): unable to bind and hydrolyze | fluorescence change (binding) (ShKAI2iB [5]; wild-type ShKAI2iB): no detectable heat change or fluorescence change

Cc1c2ccocc-2oc1=O [KAR1, 3-methyl-2H-furo [2,3-c] pyran-2-one]
Kd (ShKAI2iB [1]): 77.6 ± 3.4 µM | N (number of sites) (ShKAI2iB [1]; wild-type ShKAI2iB, ITC): 0.91 ± 0.05 | ΔG (ShKAI2iB [1]; wild-type ShKAI2iB, ITC): –5.35 kcal/mol | ΔS (entropy change) (ShKAI2iB [1]; wild-type ShKAI2iB, ITC, 10 °C): –3.99 cal mol^–1 deg^–1 | ΔH (ShKAI2iB V139L): –12.87 ± 0.03 kcal mol^–1 | ΔS (ShKAI2iB V139L): –24.8 cal mol^–1 deg^–1 | Kd (ShKAI2iB V139L; KD, ITC): 35.6 µM and 36 µM | ΔG (ShKAI2iB F190L): –4.75 kcal/mol | ΔH (ShKAI2iB F190L): –11.71 ± 8.89 kcal mol^–1 | ΔS (ShKAI2iB F190L): –24.6 cal mol^–1 deg^–1 | Kd (ShKAI2iB F194A): 107 ± 10 µM | change of ITC result versus wild type (ShKAI2iB F194A; F194A mutant): no significant change | ΔG (ShKAI2iB F194A; F194A mutant): –5.11 kcal/mol | ΔH (ShKAI2iB F194A; F194A mutant): –13.24 ± 63.94 kcal mol^–1 | ΔS (ShKAI2iB F194A; F194A mutant): –28.7 cal mol^–1 deg^–1 | Kd (ShKAI2iB L142A): 196 ± 24 µM | ΔG (ShKAI2iB L142A; L142A mutant): –4.76 kcal/mol | ΔH (ShKAI2iB L142A; L142A mutant): –7.00 ± 0.70 kcal mol^–1 | ΔS (ShKAI2iB L142A; L142A mutant): –7.90 cal mol^–1 deg^–1 | binding to KAI2 (KAI2 [3]): able to bind | Kd (ShKAI2iB [5]): 70 ± 3.4 µM | induction of germination of S. hermonthica (S. hermonthica): failed to induce germination | heat change in ITC (binding) (ShKAI2iB S95A): almost no heat change; also recorded: abolishes binding
